These results are taken from ChEMBL document CHEMBL1201862, “PubChem BioAssay data set” (2004).

Molecules are shown by their SMILES. Calls of active or inactive are those of the source.

Assay [1] has as its target T1, Short transient receptor potential channel 4 (Mus musculus, UniProt Q9QUQ5).
T1 sequence (Q9QUQ5 whole entry): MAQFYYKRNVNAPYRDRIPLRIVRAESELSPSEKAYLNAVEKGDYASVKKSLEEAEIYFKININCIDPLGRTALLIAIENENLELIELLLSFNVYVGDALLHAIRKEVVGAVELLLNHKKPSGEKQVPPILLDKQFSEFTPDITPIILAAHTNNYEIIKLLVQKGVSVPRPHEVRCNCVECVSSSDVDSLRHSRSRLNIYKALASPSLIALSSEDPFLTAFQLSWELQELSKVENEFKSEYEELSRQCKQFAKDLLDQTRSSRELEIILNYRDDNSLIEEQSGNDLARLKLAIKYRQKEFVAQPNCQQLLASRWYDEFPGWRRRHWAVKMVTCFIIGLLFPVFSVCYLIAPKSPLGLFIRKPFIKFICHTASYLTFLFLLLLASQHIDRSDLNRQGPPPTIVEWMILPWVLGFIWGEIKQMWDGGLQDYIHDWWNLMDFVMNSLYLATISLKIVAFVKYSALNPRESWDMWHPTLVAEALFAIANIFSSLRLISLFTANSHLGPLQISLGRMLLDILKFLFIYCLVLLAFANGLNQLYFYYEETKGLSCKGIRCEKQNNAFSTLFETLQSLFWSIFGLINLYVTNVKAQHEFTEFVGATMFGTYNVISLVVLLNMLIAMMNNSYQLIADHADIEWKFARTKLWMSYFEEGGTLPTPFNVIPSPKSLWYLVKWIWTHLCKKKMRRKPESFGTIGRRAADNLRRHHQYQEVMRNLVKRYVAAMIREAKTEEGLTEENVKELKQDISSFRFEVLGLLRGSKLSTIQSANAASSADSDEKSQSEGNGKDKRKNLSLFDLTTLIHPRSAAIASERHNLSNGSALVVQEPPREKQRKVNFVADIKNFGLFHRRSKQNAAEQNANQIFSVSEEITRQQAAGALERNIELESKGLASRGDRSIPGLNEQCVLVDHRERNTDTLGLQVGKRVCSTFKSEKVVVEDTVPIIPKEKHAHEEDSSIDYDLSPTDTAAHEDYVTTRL
As to the kind of experiment: TRPC4 positive allosteric modulators, dose response, cell-based, HEK293 TRPC4/mu-opioid, Fluo-4 calcium, EC20 DAMGO (AID 434941).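 Further: HEK293 cells coexpressing TRPC4 and mu opioid receptor stimulated by EC20 DAMGO.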 Format: functional.

For assay [2], the target named is T1, Short transient receptor potential channel 4. As to the kind of experiment: mouse TRPC4 channel activators, dose response, cell-based, HEK293 TRPC4/mu-opioid, Fluo-4 calcium (AID 434937). Format: functional.
A further assay addresses Cytochrome P450 2C19 (Homo sapiens, UniProt P33261). In words: Cytochrome panel assay with activity outcomes. Panel member name: p450-cyp2c19 Compounds with AC50 equal or less than 10 uM are considered active. Format: functional. Conditions: read-out: AC50.
The next assay has as its target Cytochrome P450 2D6 (Homo sapiens, UniProt P10635).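 Further: CYP2D6 member of a cytochrome P450 panel assay.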
Assay [3] has as its target 1-acylglycerol-3-phosphate O-acyltransferase ABHD5/Perilipin-5 (Homo sapiens, UniProt Q00G26+Q8WTS1). As to the kind of experiment: Luminescence-based biochemical high throughput dose response assay for inhibitors of the interaction of the lipase co-activator protein, abhydrolase domain containing 5 (ABHD5) with perilipin-5 (MLDP; PLIN5) (2K validation set). [Related pubchem assays (depositor defined):AID493035, AID493241].

Another assay addresses Perilipin-1/ABHD5 (Homo sapiens, UniProt O60240+Q8WTS1). In words: Luminescence-based biochemical high throughput dose response assay for inhibitors of the interaction of the lipase co-activator protein, abhydrolase domain containing 5 (ABHD5) with perilipin-1 (PLIN1) (2K validation set). [Related pubchem assays (depositor defined):AID493027, AID493057].
Assay [4] deals with Neurotensin receptor type 1 (Homo sapiens, UniProt P30989). Format: functional.
Sequence of Neurotensin receptor type 1 (P30989 whole entry): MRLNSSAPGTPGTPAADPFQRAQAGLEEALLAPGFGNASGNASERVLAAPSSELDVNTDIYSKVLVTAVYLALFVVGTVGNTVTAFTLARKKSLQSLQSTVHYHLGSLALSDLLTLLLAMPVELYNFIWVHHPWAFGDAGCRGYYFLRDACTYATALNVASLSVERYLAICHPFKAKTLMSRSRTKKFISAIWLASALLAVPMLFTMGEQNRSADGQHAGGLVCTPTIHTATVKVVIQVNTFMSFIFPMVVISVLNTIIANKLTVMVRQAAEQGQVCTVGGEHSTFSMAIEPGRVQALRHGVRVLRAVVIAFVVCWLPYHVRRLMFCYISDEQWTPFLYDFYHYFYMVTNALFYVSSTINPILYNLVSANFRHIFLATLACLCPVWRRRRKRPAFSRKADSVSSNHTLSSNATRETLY
In assay [5] the target is G-protein coupled receptor 35 (Homo sapiens, UniProt Q9HC97). As to the kind of experiment: GPR35 antagonists blocking zaprinast-driven arrestin recruitment, primary screen, imaging, U2OS, beta-arrestin-GFP, zaprinast agonist (AID 2058).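 Further: antagonist potency meaning inhibition of agonist-induced arrestin redistribution.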 Format: functional.
Sequence of G-protein coupled receptor 35 (Q9HC97 whole entry): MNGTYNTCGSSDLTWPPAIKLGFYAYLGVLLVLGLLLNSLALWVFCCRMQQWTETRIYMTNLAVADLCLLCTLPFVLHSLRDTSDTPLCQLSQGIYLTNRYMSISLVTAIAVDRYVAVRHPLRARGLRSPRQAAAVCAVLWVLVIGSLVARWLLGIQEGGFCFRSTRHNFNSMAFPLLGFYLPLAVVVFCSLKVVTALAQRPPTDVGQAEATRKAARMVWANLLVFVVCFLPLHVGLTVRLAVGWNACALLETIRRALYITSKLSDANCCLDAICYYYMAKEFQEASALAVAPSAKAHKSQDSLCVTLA
The subject of assay [6] is Streptococcus sp. 'group A'. In words: growth inhibition of control SK(-) GAS strain, dose response, counter-screen for streptokinase expression inhibitor project, luminescence, kanamycin, BacTiterGlo, confirmation (AID 1900). Format: functional, organism-based.
A further assay has as its target T2, Streptokinase A (Streptococcus pyogenes serotype M1, UniProt P10520).
T2 sequence (P10520 whole entry): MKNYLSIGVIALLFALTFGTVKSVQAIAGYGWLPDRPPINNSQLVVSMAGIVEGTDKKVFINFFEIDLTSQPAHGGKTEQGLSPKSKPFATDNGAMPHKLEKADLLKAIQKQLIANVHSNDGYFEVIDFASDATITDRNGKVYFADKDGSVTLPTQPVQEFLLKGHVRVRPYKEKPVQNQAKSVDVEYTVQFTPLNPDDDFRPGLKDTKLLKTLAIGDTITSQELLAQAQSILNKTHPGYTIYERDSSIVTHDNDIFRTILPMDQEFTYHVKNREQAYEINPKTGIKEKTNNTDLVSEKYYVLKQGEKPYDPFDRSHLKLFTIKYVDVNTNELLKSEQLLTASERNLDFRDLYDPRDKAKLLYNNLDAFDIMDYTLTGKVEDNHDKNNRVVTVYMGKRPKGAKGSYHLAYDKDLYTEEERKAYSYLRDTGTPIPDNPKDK
In words: S. pyogenes streptokinase expression inhibitors, potency, dose response, plasminogen activation absorbance, OD405 (AID 1914).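 Further: secreted streptokinase activity via plasminogen activation per viability signal from cell pellet.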 Format: functional, Streptococcus pyogenes M1 GAS.

The next assay concerns Streptococcus. In words: Group A Streptococcus viability loss, dose response, counter-screen for streptokinase expression inhibitor project, luminescence, BacTiterGlo (AID 1915).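 Further: potency for reduction of bacterial viability or growth.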 Format: functional, organism-based.
Another assay deals with T3, Caspase-3 (Homo sapiens, UniProt P42574).
T3 sequence (P42574 whole entry): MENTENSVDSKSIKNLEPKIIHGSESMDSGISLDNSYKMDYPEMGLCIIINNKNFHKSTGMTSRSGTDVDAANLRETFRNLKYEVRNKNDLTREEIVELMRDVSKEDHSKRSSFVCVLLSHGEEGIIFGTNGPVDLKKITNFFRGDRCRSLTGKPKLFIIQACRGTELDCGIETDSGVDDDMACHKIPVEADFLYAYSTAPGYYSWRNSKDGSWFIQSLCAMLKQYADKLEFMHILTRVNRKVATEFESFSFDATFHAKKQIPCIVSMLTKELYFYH
In words: procaspase-3 activation potency of dual hits, dose response, counter-screen for dual procaspase-3/7 activator project, biochemical, absorbance, PC-3 D3A mutant (AID 504328).

Another assay deals with Caspase-7 (Homo sapiens, UniProt P55210). As to the kind of experiment: procaspase-7 activators, dose response, dual procaspase-3/-7 activator project, biochemical, absorbance, human (AID 504330).
Assay [7] in a line: cytotoxicity in NIH/3T3 mouse fibroblasts, dose response, cytotoxicity control, cell-based, mouse embryonic fibroblasts, dry powder, set 2 (AID 493247). Format: functional. The following applies: Fibroblast.
A further assay concerns Trypanosoma cruzi. In words: growth inhibition of intracellular Trypanosoma cruzi, dose response, cell-based, plate reader, dry powder, set 3 (AID 493197). Format: functional.
Assay [8] concerns the target Protein phosphatase methylesterase 1 (Homo sapiens, UniProt Q9Y570). As to the kind of experiment: PME-1 inhibitor potency by in-gel ABPP, dose response, selectivity assay for PME-1 inhibitor project, cell lysate, mouse brain cytosol, FP-rhodamine, panel member PME-1 Assay Panel member description: Inhibition of endogenously expressed PME-1 (AID 2366).
For assay [9], the target named is T4, Intestinal-type alkaline phosphatase (Homo sapiens, UniProt P09923). As to the kind of experiment: Dose Response confirmation of uHTS hits from a small molecule inhibitors of human intestinal alkaline phosphatase via a luminescent assay. [Related pubchem assays (depositor defined):AID2544, AID2574]. The assay is classed as functional.
T4 sequence (P09923 whole entry): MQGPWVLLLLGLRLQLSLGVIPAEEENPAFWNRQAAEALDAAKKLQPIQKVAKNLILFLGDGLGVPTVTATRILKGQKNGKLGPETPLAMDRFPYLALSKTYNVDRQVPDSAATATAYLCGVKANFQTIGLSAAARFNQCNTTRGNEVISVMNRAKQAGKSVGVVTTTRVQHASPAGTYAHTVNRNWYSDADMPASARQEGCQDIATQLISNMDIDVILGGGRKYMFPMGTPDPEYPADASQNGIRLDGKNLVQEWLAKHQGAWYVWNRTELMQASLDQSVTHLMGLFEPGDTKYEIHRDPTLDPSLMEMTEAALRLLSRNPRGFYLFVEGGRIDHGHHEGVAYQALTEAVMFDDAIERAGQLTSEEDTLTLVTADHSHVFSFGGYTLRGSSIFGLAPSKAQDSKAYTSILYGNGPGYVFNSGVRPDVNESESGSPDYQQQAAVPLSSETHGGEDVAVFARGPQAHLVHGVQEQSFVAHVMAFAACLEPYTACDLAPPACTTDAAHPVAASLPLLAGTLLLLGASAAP
Assay [10] deals with T4, Intestinal-type alkaline phosphatase. As to the kind of experiment: human intestinal alkaline phosphatase activators, dose response, biochemical, luminescence, uHTS hits (AID 463120). Format: functional.
The next assay deals with Saccharomyces cerevisiae. As to the kind of experiment: NALP1 inhibitor project selectivity study, Caspase-1/ASC signal blockade IC50 in S. cerevisiae (AID 488863). Format: functional, organism-based.
For assay [11], the target named is NACHT, LRR and PYD domains-containing protein 1 (Homo sapiens, UniProt Q9C000). As to the kind of experiment: NALP1 inhibitors in yeast, dose response, luminescent (AID 488860). Format: functional.

Sequence of Perilipin-1/ABHD5 (Q8WTS1 whole entry, the tested form may be a part): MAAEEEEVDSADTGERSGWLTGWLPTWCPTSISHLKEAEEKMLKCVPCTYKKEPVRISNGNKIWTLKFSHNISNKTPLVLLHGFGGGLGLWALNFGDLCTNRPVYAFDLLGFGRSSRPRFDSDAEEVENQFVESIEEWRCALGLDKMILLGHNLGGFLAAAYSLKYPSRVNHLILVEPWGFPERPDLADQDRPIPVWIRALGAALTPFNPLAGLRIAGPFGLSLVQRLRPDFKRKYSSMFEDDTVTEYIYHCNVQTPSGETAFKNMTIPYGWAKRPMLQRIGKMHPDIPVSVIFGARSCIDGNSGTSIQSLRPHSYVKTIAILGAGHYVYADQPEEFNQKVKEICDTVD
Sequence of Perilipin-1/ABHD5 (O60240 whole entry, the tested form may be a part): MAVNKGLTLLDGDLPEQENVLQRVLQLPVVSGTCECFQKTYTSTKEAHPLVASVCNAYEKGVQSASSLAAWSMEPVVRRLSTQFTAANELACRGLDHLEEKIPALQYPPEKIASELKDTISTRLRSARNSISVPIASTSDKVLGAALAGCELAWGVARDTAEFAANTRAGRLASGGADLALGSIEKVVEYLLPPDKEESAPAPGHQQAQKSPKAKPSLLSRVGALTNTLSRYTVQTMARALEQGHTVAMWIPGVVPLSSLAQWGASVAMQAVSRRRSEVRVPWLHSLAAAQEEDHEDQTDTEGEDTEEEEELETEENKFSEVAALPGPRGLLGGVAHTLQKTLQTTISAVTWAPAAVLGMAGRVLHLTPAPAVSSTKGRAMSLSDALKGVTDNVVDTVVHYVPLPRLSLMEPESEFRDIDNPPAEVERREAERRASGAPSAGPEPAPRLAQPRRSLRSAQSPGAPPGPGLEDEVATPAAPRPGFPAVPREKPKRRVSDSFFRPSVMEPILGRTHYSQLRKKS
Sequence of Cytochrome P450 2D6 (P10635 whole entry, the tested form may be a part): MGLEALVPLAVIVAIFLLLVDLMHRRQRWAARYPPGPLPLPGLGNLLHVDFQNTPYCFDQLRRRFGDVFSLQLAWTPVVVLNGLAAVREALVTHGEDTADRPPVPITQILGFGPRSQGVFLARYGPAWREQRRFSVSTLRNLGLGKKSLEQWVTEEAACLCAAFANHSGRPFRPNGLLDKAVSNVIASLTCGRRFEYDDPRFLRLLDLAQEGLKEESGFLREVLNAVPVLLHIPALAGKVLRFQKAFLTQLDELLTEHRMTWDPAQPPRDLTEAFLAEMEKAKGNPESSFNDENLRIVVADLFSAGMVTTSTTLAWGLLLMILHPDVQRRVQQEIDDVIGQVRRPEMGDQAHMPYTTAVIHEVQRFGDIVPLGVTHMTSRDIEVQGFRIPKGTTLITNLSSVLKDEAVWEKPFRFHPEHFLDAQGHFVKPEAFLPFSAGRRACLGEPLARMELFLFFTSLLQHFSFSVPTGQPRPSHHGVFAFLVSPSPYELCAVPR
Sequence of Protein phosphatase methylesterase 1 (Q9Y570 whole entry): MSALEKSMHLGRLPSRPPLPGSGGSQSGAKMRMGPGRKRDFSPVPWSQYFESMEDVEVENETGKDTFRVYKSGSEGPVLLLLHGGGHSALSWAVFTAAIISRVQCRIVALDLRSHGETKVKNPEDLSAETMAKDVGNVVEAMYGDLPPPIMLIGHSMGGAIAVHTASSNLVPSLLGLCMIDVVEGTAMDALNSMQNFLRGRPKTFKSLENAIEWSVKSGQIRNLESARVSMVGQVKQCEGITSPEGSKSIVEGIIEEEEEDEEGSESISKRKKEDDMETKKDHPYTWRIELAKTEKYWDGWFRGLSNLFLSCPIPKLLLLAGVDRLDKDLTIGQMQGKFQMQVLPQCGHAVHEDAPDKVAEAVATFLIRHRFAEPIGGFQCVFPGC
Sequence of 1-acylglycerol-3-phosphate O-acyltransferase ABHD5/Perilipin-5 (Q00G26 whole entry, the tested form may be a part): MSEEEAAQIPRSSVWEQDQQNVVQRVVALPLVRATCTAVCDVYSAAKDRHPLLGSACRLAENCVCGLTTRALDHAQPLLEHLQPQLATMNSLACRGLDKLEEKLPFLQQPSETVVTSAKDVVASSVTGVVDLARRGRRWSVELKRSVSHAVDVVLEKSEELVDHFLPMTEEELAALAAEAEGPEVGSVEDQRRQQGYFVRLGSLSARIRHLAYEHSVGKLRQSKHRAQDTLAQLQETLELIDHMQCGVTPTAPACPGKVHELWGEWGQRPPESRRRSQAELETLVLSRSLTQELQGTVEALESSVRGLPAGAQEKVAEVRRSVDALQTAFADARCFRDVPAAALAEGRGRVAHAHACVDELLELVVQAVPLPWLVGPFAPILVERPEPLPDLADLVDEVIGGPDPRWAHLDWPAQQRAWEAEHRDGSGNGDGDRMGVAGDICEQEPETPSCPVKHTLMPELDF
Sequence of 1-acylglycerol-3-phosphate O-acyltransferase ABHD5/Perilipin-5 (Q8WTS1 whole entry, the tested form may be a part): as the sequence (Q8WTS1 whole entry, the tested form may be a part) above
Sequence of Cytochrome P450 2C19 (P33261 whole entry): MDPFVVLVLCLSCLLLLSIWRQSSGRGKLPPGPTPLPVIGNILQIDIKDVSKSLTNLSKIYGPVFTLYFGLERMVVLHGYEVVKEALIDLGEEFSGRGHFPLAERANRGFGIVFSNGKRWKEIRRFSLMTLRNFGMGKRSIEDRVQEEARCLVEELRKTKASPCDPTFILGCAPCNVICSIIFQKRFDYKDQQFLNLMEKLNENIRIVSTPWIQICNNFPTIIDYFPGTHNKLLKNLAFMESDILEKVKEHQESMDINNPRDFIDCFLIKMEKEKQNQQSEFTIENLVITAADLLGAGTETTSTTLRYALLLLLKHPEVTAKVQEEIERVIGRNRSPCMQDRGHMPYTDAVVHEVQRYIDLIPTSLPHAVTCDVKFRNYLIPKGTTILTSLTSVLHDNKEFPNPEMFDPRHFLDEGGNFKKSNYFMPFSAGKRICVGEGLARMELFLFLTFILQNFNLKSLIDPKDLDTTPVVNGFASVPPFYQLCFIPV

With `Cc1cc(OCCNCCO)cc(C)c1Cl`, the EC50 was 0.09 µM (active) in assay [1] and 0.841 µM (active) in assay [2]. Also, the concentration at half-maximal activity (AC50) was 7.08 µM (inconclusive) at Cytochrome P450 2C19 and 25.1 µM (inconclusive) on Cytochrome P450 2D6.

With `O=C1ON=C(c2ccc(Cl)cc2)/C1=C/c1ccc(O)cc1`, the results for the IC50 (in assay [3]; at Perilipin-1/ABHD5) were 3.1 µM (active) and 2.28 µM (active), respectively. Further, the EC50 in assay [4] is 8.29 µM (active).

`CC(C)c1ccc(N2C(=O)/C(=C/N(C)C)SC2=S)cc1`: in assay [5], the half-inhibitory concentration (IC50) was 0.835 µM (active). The results for the EC50 (in [6]; at Streptokinase A; in the assay on Streptococcus) were 3.85 µM (active), 5.29 µM (active) and 57 µM (active), respectively.

`COc1ccc(-c2cc(C(=O)OC3CCOC3=O)c3ccccc3n2)cc1OC` (stereo not given): the EC50 on Caspase-3 and at Caspase-7 was > 85.3 µM (inactive) throughout.

With `COc1ccc(CCN(C)C(=O)C2CCCN(Cc3ccc(F)cc3)C2)cc1OC` (stereo not given), the concentration at half-maximal activity (AC50) is 64.7 µM (active) in [7] and 4.33 µM (active) in the assay with Trypanosoma cruzi.

`N#CC(C#N)=Cc1cccn1S(=O)(=O)c1ccc(F)cc1F`: in assay [8], the IC50 is 20 µM (inactive).

As for `CCn1cc(CN2CCN(C)C(CCO)C2)c2ccccc21` (stereo not given), in [9], the IC50 was > 100 µM (inactive). Also, in [10], the EC50 is > 100 µM (inactive).

On to `O=C(NCCCc1ccccc1)c1ccccc1O`, for which the 50% inhibitory concentration (IC50) in the assay on Saccharomyces cerevisiae is 11.5 µM (active); in assay [11] it was 13.1 µM (active).
